From PMC4265395 (Malaria Journal, 2014)
Like-named read-outs stand apart in the source and are kept apart here. Marks after values point to notes of the source that are not given here.

What was measured:
[1] = tested on: P. berghei NK65 blood parasites (CQ-sensitive); experiment: Suppressive test in mice, CQ-sensitive P. berghei; assay type: in vivo, P. berghei in Swiss mice; settings: for Percentage reduction of parasitaemia, CQ-Sensitive, Day 5 / Percentage reduction of parasitaemia, CQ-Sensitive, Day 7: 25 mg/kg oral, four consecutive days, vs non-treated mice; for Percentage reduction of parasitaemia, CQ-Sensitive, Day 5: day 5 after inoculation; for Percentage reduction of parasitaemia, CQ-Sensitive, Day 7: day 7 after inoculation; for Inhibition of P. berghei parasitaemia, day 5 / Inhibition of P. berghei parasitaemia, day 7: 50 mg/kg dose; for Inhibition of P. berghei parasitaemia, day 5: day 5 after infection; for Inhibition of P. berghei parasitaemia, day 7: day 7 after infection; for Mice surviving the infection at least 30 days after the end of treatment: P. berghei-infected mice, groups of five
Description: (§1) The protocol for animal use was approved by the Ethics Committee for Animal Use (CEUA LW-23/13) of the Oswaldo Cruz Foundation (Fiocruz). Only Swiss adult female mice (20 ± 2 g weight) were used; they were raised at the animal facilities at FIOCRUZ-Minas.
The suppressive test was performed as described using the P. berghei NK65 blood parasites, with some modifications. Briefly, the blood parasites were maintained through weekly blood passages in mice. For the experiments, groups of 20–30 mice were inoculated with 1 × 10^5 infected erythrocytes. Approximately three hours later, they were randomly distributed into groups of five to six mice per cage, which were treated daily by gavage for four consecutive days. All the compounds were freshly diluted in 3% DMSO (Sigma-Aldrich) in RPMI medium and were administered orally at doses of 25 mg/kg or 50 mg/kg. The control mice received the drug vehicle. On days 5 and 7 after parasite inoculation, blood was taken from the tail of each mouse and used to prepare thin smears, which were methanol-fixed, Giemsa-stained and examined microscopically to determine parasitaemia.

[2] = tested on: CQ-S P. falciparum parasites (3D7 strain); experiment: anti-HRPII test, P. falciparum CQ-S 3D7 strain in culture; assay type: cell-based, Plasmodium falciparum; settings: for SI (MLD50/IC50) 3D7 (CQ-S): MLD50 HepG2 / IC50 3D7; for IC50: Plasmodium falciparum; for Activity class against CQ-S parasites (3D7): in vitro, class by IC50
Description: (§2) Before tests with the molecules were performed, ring stage parasites were synchronized using sorbitol and the parasitaemia and haematocrit were adjusted; 180 μL/well was added to 96-well microtiter plates (Corning, Santa Clara, CA, USA) containing the diluted compounds tested in triplicate. Drug activity was evaluated in relation to control cultures with no drugs and was measured using the anti-histidine-rich protein II (HRPII) test as described. CQ was used in each test as a control, and two to four experiments were performed for each parasite strain.
(§3) The cultures were added to plates containing the diluted drugs, followed by incubation for 24 h under standard culture conditions. The contents of six wells with no drugs were harvested in each test plate, pooled in microtubes, and frozen for later use to measure the background parasite growth as described. […] Phosphate-buffered saline (PBS) containing 0.05% Tween and 4% bovine serum albumin was used for plate blocking (3 h at room temperature) to avoid nonspecific antibody binding. After 1 h at room temperature, the plate was washed, and 100 μL/well of a secondary antibody solution (MPFG-55P ICLLAB®, USA) was added, followed by incubation with 3,3′,5,5′-tetramethylbenzidine (TMB) chromogen (KPL, Gaithersburg, MD, USA) in the dark. […] The anti-P. falciparum drug activity was evaluated by comparing the parasite growth in the drug-free control cultures, considered 100% growth, with that in the drug test cultures.

[3] = tested on: HepG2 cells; assay type: cell-based; settings: human, 24 h
Description: A human hepatoma cell line (HepG2), originally received from the University of Lisbon as a kind gift, was cultured as described. […] When confluent, the cell monolayer was trypsinized, washed with culture medium supplemented with 10% FCS, counted, diluted (5 × 10^3 cells/well), placed in flat-bottom 96-well plates (Corning, Santa Clara, CA, USA), and incubated for 18 h at 37°C to allow cell adhesion. […] After 3 h, the supernatant was discarded, 100 μL of dimethyl sulphoxide (DMSO) was added per well, and the optical density was measured (SpectraMax340PC384, Molecular Devices) at 570 nm (test) and 630 nm (background). Cell viability was expressed as the percentage of the absorbance compared to the absorbance of the untreated cells and subtracted from the appropriate background measurement.

[4] = tested on: CQ-R P. falciparum parasites (W2 clone); experiment: anti-HRPII test, P. falciparum CQ-R W2 clone in culture; assay type: cell-based, Plasmodium falciparum; settings: for SI (MLD50/IC50) W2 (CQ-R): MLD50 HepG2 / IC50 W2; for IC50: Plasmodium falciparum
Description: as §2, §3

[5] = tested on: P. berghei NK65 CQ-resistant strain; assay type: in vivo, P. berghei in Swiss mice; settings: for Activity class against CQ-resistant P. berghei in mice: 25 mg/kg
Description: as §1
A P. berghei NK65 CQ-resistant strain maintained at -70°C, selected by increasing doses of CQ, maintained in mice under constant drug pressure (CQ 150 mg/kg) and stored at -70°C was also defrosted and used to inoculate mice. […] The mice were inoculated with 10^7 parasitized RBCs using blood parasites from a donor with parasites resistant to 150 mg/kg of CQ. Groups of five mice each were separated 24 h after the parasite inoculation, then treated orally with the test CQAn at doses of 25 or 50 mg/kg for three consecutive days. Two control groups were used in each experiment; one received CQ at 150 mg/kg and the other was infected but treated with vehicle only (no drugs). The inhibition of parasitaemia was evaluated as described for the mice inoculated with the CQ-sensitive parasites.

[6] = tested on: β-haematin formation; experiment: Inhibition of β-haematin formation assay (lipid catalyst); assay type: biochemical
Description: The assay was performed using a lipid as a catalyst to promote crystallization. Briefly, drug stock solutions were prepared in DMSO and were used at a final concentration of up to 30 mM. A haem stock (10 mM) was made in DMSO and was diluted to 50 μM with 100 mM sodium acetate (pH 4.8). […] The plates were incubated at 37°C for 2 h to allow crystallization, followed by the addition of 100 μl of 200 mM sodium bicarbonate (pH 9.1) to solubilize any remaining monomeric haem. After incubation for 30 min at room temperature, the amount of solubilized monomeric haem was determined by measuring the absorbance at 405 nm. Finally, 20 μl of 1 M sodium hydroxide was added to the plates to dissolve any crystals that had been formed, and the absorbance was read at 405 nm to determine the total amount of haem present in each well. The inhibition of haem crystallization was determined as a function of the amount of monomeric haem that was not crystallized divided by the total amount of haem present in the assay mixture. The results are expressed as IC50 values based on the percentage inhibition of β-haematin formation by the CQAn.

[7] = tested on: P. berghei NK65 blood parasites (CQ-sensitive); set-up: method as in de Souza et al. [19]; settings: 25 mg/kg, adapted from earlier paper, ref de Souza et al. [19], cited from earlier work
[8] = 3D7, anti-HRPII method, average ± SD of two to four experiments, read-out: Anti-P. falciparum activity (IC50) 3D7 (CQ-S)
[9] = W2, anti-HRPII method, average ± SD of two to four experiments, read-out: Anti-P. falciparum activity (IC50) W2 (CQ-R)
[10] = 25 mg/kg (footnote b; head says 50 mg/kg)
[11] = experiment 1, read-out: Inhibitory concentration of β-haematin formation (IC50), Exp 1
[12] = experiment 2, read-out: Inhibitory concentration of β-haematin formation (IC50), Exp 2
[13] = experiment 3, read-out: Inhibitory concentration of β-haematin formation (IC50), Exp 3
[14] = 50 mg/kg oral, three consecutive days

Structure (SMILES)	Percentage reduction of parasitaemia, CQ-Sensitive, Day 5 [1]	Percentage reduction of parasitaemia, CQ-Sensitive, Day 7 [1]	SI (MLD50/IC50) 3D7 (CQ-S) [2]	IC50 [2, 8]	Activity class against CQ-S parasites (3D7) [2]	Cytotoxicity MLD50 HepG2 cells [3]	SI (MLD50/IC50) W2 (CQ-R) [4]	IC50 [4, 9]	Inhibition of P. berghei parasitaemia, day 5 [1]	Inhibition of P. berghei parasitaemia, day 7 [1]	IC50 [6, 11]	IC50 [6, 12]	IC50 [6, 13]	Percentage reduction of parasitaemia, CQ-Resistant, Day 5 [5, 14]	Percentage reduction of parasitaemia, CQ-Resistant, Day 7 [5, 14]	also measured
C#CCNCCNc1ccnc2cc(Cl)ccc12 [CQAn34]	99%	81%	3144	0.3 ± 0.01 µM	active	943.29 ± 73.15 µM	4101	0.23 ± 0.15 µM	–	–	–	–	–	–	–	Activity class against CQ-resistant P. berghei in mice [5]: inactive; Percentage reduction of parasitaemia, CQ-Resistant, Day 5 [5, 10]: 0^b %
C#CCN(CC#C)CCNc1ccnc2cc(Cl)ccc12 [CQAn37]	100%	93%	2981	0.57 ± 0.24 µM	active	1699.24 ± 10.07 µM	24275	0.07 ± 0.03 µM	100%	100%	2700 µM	10200 µM	7500 µM	47%	33%	Mice surviving the infection at least 30 days after the end of treatment [1]: Two of the five
C#CCN(CC#C)CCCNc1ccnc2cc(Cl)ccc12 [CQAn39]	95%	92%	1342	2.39 ± 0.11 µM	partially active (between 1–5 μM as partially active)	≥3207.08 µM	5011	0.64 ± 0.29 µM	–	–	–	–	–	62%	30%	–
C#CCNCCCCNc1ccnc2cc(Cl)ccc12 [CQAn33]	–	–	131	1.17 ± 0.1 µM	partially active (between 1–5 μM as partially active)	152.89 ± 12.86 µM	7645	0.02 ± 0.001 µM	100%	100%	4700 µM	3000 µM	5600 µM	53%	52%	Percentage reduction of parasitaemia, CQ-Sensitive, Day 5 [7]: 73^a %; Percentage reduction of parasitaemia, CQ-Sensitive, Day 7 [7]: 57^a %; β-haematin formation IC50 compared with that of CQ ([6]; relative to CQ): similar; IC50 compared with that of CQ ([4]; relative to CQ, P. falciparum in vitro): more than 10 fold
C#CCNCCCNc1ccnc2cc(Cl)ccc12 [CQAn28]	–	–	101	14.9 ± 3.58 µM	inactive	1508.56 ± 344.50 µM	2125	0.71 ± 0.03 µM	–	–	–	–	–	–	–	Percentage reduction of parasitaemia, CQ-Sensitive, Day 5 [7]: 94^a %; Percentage reduction of parasitaemia, CQ-Sensitive, Day 7 [7]: 24^a %; Activity class against CQ-resistant P. berghei in mice [5]: inactive; Percentage reduction of parasitaemia, CQ-Resistant, Day 5 [5, 10]: 0^b %
CCN(CC)CCCC(C)Nc1ccnc2cc(Cl)ccc12 (stereo not shown) [Chloroquine, reference compound]	100%	97%	–	–	–	–	–	–	100%	100%	600 µM	2000 µM	5000 µM	–	–	Mice surviving the infection at least 30 days after the end of treatment [1]: all; IC50 ([2]; 3D7, read-out: Anti-P. falciparum activity (IC50) 3D7 (CQ-S)): 0.081 ± 0.019 µM; IC50 ([4]; W2, read-out: Anti-P. falciparum activity (IC50) W2 (CQ-R)): 0.38 ± 0.03 µM
C#CCN(CC#C)CCCCNc1ccnc2cc(Cl)ccc12 [CQAn45]	88%	50%	868	1.17 µM	partially active (between 1–5 μM as partially active)	1015.84 ± 42.97 µM	–	0.77 ± 0.21 µM	–	–	–	–	–	63%	51%	–
